Data from patent US7759345B2, “Antitumoral derivatives of ET-743” (priority 2001, dated 2010).

What was measured:
[1] = tested on: SK-BR-3; assay: Inhibition of cells growth by colorimetric assay (SRB), SK-BR-3; type: cell-based; details: SRB, 48 hours exposure
Outline: (§1)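 48 h SRB cytotoxicity assay; compound range 10–10^−8 μg/ml; seeding 5×10^3 cells/well, 18 h pre-attachment; OD 490 nm; GI, TGI, LC from triplicate means ± SD.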

[2] = tested on: HT-29; assay: Inhibition of cells growth by colorimetric assay (SRB), HT-29; type: cell-based; details: SRB, 48 hours exposure
Outline: as §1

[3] = tested on: SK-MEL-28; assay: Inhibition of cells growth by colorimetric assay (SRB), SK-MEL-28; type: cell-based; details: SRB, 48 hours exposure
Outline: as §1

[4] = tested on: Kidney
Description: (§2) Toxicity was asssessed by the methods reported in Toxicology in Vitro, 15 (2001) 571-577, J. Luber Narod et al.: “Evaluation of the use of in vitro methodolodies as tools for screening new compounds for potential in vivo toxicity”.

[5] = tested on: Skeletal
Description: as §2

[6] = tested on: IGROV-1; assay: Inhibition of cells growth by colorimetric assay (SRB), IGROV-1; type: cell-based; details: SRB, 48 hours exposure
Outline: as §1

[7] = tested on: SK-OV-3; assay: Inhibition of cells growth by colorimetric assay (SRB), SK-OV-3; type: cell-based; details: SRB, 48 hours exposure
Outline: as §1

[8] = tested on: Liver
Description: as §2

[9] = tested on: A-549; assay: Inhibition of cells growth by colorimetric assay (SRB), A-549; type: cell-based; details: SRB, 48 hours exposure
Outline: as §1

[10] = tested on: K-562; assay: Inhibition of cells growth by colorimetric assay (SRB), K-562; type: cell-based; details: SRB, 48 hours exposure
Outline: as §1

[11] = tested on: IGROV-ET; assay: Inhibition of cells growth by colorimetric assay (SRB), IGROV-ET; type: cell-based; details: SRB, 48 hours exposure
Outline: as §1

[12] = tested on: Myelo
Description: as §2

[13] = tested on: LNCaP; assay: Inhibition of cells growth by colorimetric assay (SRB), LNCaP; type: cell-based; details: SRB, 48 hours exposure
Outline: as §1

[14] = tested on: Heart
Description: as §2

[15] = tested on: LoVo-Dox; assay: Inhibition of cells growth by colorimetric assay (SRB), LoVo-Dox; type: cell-based; details: SRB, 48 hours exposure
Outline: as §1

[16] = tested on: PANC-1; assay: Inhibition of cells growth by colorimetric assay (SRB), PANC-1; type: cell-based; details: SRB, 48 hours exposure
Outline: as §1

[17] = tested on: LoVo; assay: Inhibition of cells growth by colorimetric assay (SRB), LoVo; type: cell-based; details: SRB, 48 hours exposure
Outline: as §1

[18] = tested on: DU-145; assay: Inhibition of cells growth by colorimetric assay (SRB), DU-145; type: cell-based; details: SRB, 48 hours exposure
Outline: as §1

[19] = tested on: HMEC1; assay: Inhibition of cells growth by colorimetric assay (SRB), HMEC1; type: cell-based; details: SRB, 48 hours exposure
Outline: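 First, cells were plated at 5×10^3 per well and left 18 h to attach. Next, compound was added over 10 to 10^−8 μg/ml for 48 h. Finally, cells were TCA-fixed, SRB-stained and absorbance read at 490 nm.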

COC1=C(C)C(=O)C2=C(C1=O)[C@@H]1C3[C@@H]4SC[C@]5(NCCc6cc(O)c(OC)cc65)C(=O)OC[C@@H](c5c6c(c(C)c(OC(C)=O)c54)OCO6)N3[C@@H](O)[C@H](C2)N1C (some centres unmarked) [Compound 101]
GI50 ([1]; Homo sapiens, SK-BR-3, 48 h, SK-BR3, read-out: SK-BR3 GI50): 2.63 nM
CC50 ([1]; Homo sapiens, SK-BR-3, 48 h, read-out: SK-BR3 LC50, SK-BR3): 46.8 nM
SK-BR3 TGI ([1]; SK-BR3): 6.44E-09
HT-29 TGI ([2]; HT-29): 1.03E-08
GI50 ([2]; Homo sapiens, HT-29, 48 h, HT-29, read-out: HT-29 GI50): 3.57 nM
LC50 (concentration for 50% cell killing) ([2]; Homo sapiens, HT-29, 48 h, read-out: HT-29 LC50, HT-29): 12.9 µM
GI50 ([3]; Homo sapiens, SK-MEL-28, 48 h, MEL-28, read-out: MEL-28 GI50): 3.35 nM
CC50 ([3]; Homo sapiens, SK-MEL-28, 48 h, read-out: MEL-28 LC50, MEL-28): 26 nM
MEL-28 TGI ([3]; MEL-28): 7.02E-09
Toxicity Data Kidney [4]: 3.17E-08
Toxicity Data Skeletal [5]: 3.40E-09
GI50 ([6]; Homo sapiens, IGROV-1, 48 h, IGROV, read-out: IGROV GI50): 2.5 nM
CC50 ([6]; Homo sapiens, IGROV-1, 48 h, read-out: IGROV LC50, IGROV): 10.7 nM
IGROV TGI ([6]; IGROV): 5.17E-09
GI50 ([7]; Homo sapiens, SK-OV-3, 48 h, SK-OV3, read-out: SK-OV3 GI50): 4.49 nM
LC50 ([7]; Homo sapiens, SK-OV-3, 48 h, read-out: SK-OV3 LC50, SK-OV3): 12.9 µM
SK-OV3 TGI ([7]; SK-OV3): 9.77E-09
Toxicity Data Liver [8]: 5.40E-08
A-549 TGI ([9]; A-549): 6.52E-09
GI50 ([9]; Homo sapiens, A549, 48 h, A-549, read-out: A-549 GI50): 3.69 nM
LC50 (concentration for 50% cell killing) ([9]; Homo sapiens, A549, 48 h, read-out: A-549 LC50, A-549): 11.5 nM
GI50 ([10]; Homo sapiens, K562, 48 h, K-562, read-out: K-562 GI50): 0.25 nM
LC50 (50% cell killing) ([10]; Homo sapiens, K562, 48 h, read-out: K-562 LC50, K-562): 19.2 nM
K-562 TGI ([10]; K-562): 6.20E-10
GI50 ([11]; Homo sapiens, 48 h, IGROV-ET, read-out: IGROV-ET GI50): 30.5 nM
CC50 ([11]; Homo sapiens, 48 h, read-out: IGROV-ET LC50, IGROV-ET): 246 nM
IGROV-ET TGI ([11]; IGROV-ET): 6.88E-08
Toxicity Data Myelo [12]: 1.96E-08
GI50 ([13]; Homo sapiens, LNCaP, 48 h, read-out: LNCAP GI50, LNCAP): 2.5 nM
CC50 ([13]; Homo sapiens, LNCaP, 48 h, read-out: LNCAP LC50, LNCAP): 7.71 nM
LNCAP TGI ([13]; LNCAP): 4.40E-09
Toxicity Data Heart [14]: 7.67E-08
GI50 ([15]; Homo sapiens, 48 h, LOVO-DOX, read-out: LOVO-DOX GI50): 251 nM
CC50 ([15]; Homo sapiens, 48 h, read-out: LOVO-DOX LC50, LOVO-DOX): 12.9 µM
LOVO-DOX TGI ([15]; LOVO-DOX): 9.29E-07
GI50 ([16]; Homo sapiens, PANC-1, 48 h, PANC-1, read-out: PANC-1 GI50): 5.66 nM
LC50 (concentration for 50% net cell kill) ([16]; Homo sapiens, PANC-1, 48 h, read-out: PANC-1 LC50, PANC-1): 1340 nM
PANC-1 TGI ([16]; PANC-1): 2.27E-08
GI50 ([17]; Homo sapiens, LoVo, 48 h, LOVO, read-out: LOVO GI50): 13.4 nM
LC50 (concentration for 50% cell killing) ([17]; Homo sapiens, LoVo, 48 h, read-out: LOVO LC50, LOVO): 219 nM
LOVO TGI ([17]; LOVO): 4.68E-08
DU-145 TGI ([18]; DU-145): 7.46E-09
GI50 ([18]; Homo sapiens, DU-145, 48 h, DU-145, read-out: DU-145 GI50): 3.74 nM
CC50 ([18]; Homo sapiens, DU-145, 48 h, read-out: DU-145 LC50, DU-145): 17.9 nM
HMEC-1 TGI ([19]; HMEC-1): 1.17E-08
GI50 ([19]; Homo sapiens, HMEC-1, 48 h, HMEC-1, read-out: HMEC-1 GI50): 3.05 nM
LC50 ([19]; Homo sapiens, HMEC-1, 48 h, read-out: HMEC-1 LC50, HMEC-1): 12.9 µM
